Consider 84 compounds from ChEMBL document CHEMBL1157539, “Thousands of chemical starting points for antimalarial lead identification” (Nature, 2010).

This assay relates to Plasmodium falciparum. Briefly: GSK_TCMDC: Inhibition of Plasmodium falciparum 3D7 in whole erythrocytes, using parasite LDH activity as an index of growth. Format: functional, organism-based.

Regarding `COc1ccc2cc(C(=O)NC3CCC(CCN4CCc5cc(C#N)ccc5C4)CC3)[nH]c2c1` (stereo not given), the XC50 (Plasmodium falciparum, 3D7) is 1010 nM.
The same measure, in the same setting: next, `Cc1cc(NC2CCCC2)nc(Nc2ccccc2F)n1`: 926 nM; `N#Cc1ccc(-c2ccc(OCC(O)CN3CCCN(Cc4cccc(O)c4Cl)CC3)cc2)cc1` (stereo not given): 690 nM; `O=C(Nc1ccc(-c2csc3nccn23)cc1)c1ccc(Cl)cc1`: 584 nM.
`CN(C)CCCn1cncc1-c1ccc2ncnc(Nc3ccc4c(cnn4Cc4ccccc4)c3)c2c1`: for the setting “Plasmodium falciparum, 3D7”, the XC50 is 726 nM.
On the same count and under the same terms, to `Cc1cc(F)ccc1-c1nc(NCCCN2CCCC2=O)nc2c1ccc(=O)n2-c1c(F)cccc1F` belongs 1020 nM.
Same read-out and setting: next, `CC(C)CCN1CCC(Oc2ccc(NC(=O)c3ccco3)cc2Cl)CC1`: 676 nM.
Same read-out and setting: to `CC(C)N1CCC(N(Cc2ccc(-c3ccc(C(F)(F)F)cc3)cc2)C(=O)Cn2c(CCc3cccc(F)c3F)cc(=O)c3c2CCC3)CC1` belongs 617 nM; to `COc1cc2nc(NCCCN3CCCCC3)nc(NCc3ccccc3)c2cc1OC`, 998 nM; to `CCCCCN1CCC(NS(=O)(=O)c2cccc(C(=O)Nc3ccc(Cl)cc3)c2)CC1`, 918 nM.
Regarding `CC(=O)Nc1ccc(S(=O)(=O)Nc2ccc(Nc3nc(C)cc(N(C)C)n3)cc2)cc1`, the XC50 (Plasmodium falciparum, 3D7) came to 1160 nM.
In turn, `COc1ccc(NC(=O)/C=C/c2ccc(Cl)c(C(F)(F)F)c2)cc1OCCN(C(C)C)C(C)C` gave an XC50 (Plasmodium falciparum, 3D7) of 626 nM.
For the setting “Plasmodium falciparum, 3D7”, `O=S(=O)(c1ccccc1C(F)(F)F)C1CC2CCC(C1)N2S(=O)(=O)c1ccc(Cl)c(C(F)(F)F)c1` (stereo not given) came in with an XC50 of 706 nM.
For the setting “Plasmodium falciparum, 3D7”, `CC(=O)Nc1ccc(CN2CCC(NC(=O)c3ccc(-c4cccc(C(F)(F)F)c4)s3)CC2)cc1` registered an XC50 of 890 nM.
The same measure, in the same setting: to `CC[C@H](C)CNC(=O)c1cncc(-c2cccc(CNCCCc3ccccc3)c2)c1` belongs 1170 nM; to `O=C(Nc1cc(C(F)(F)F)ccc1N1CCOCC1)C(Cl)(Cl)Cl`, 373 nM; to `Cc1cc(C)c(CC(C)NCC(O)c2cccc(C(F)(F)F)c2)c(C)c1` (stereo not given), 568 nM.
Still for that read-out and setting: to `Cc1cc(OCCCN2CCN(CCN3CCOCC3)CC2)ccc1NC(=O)COc1ccc(Cl)cc1C(=O)c1cc(Cl)cc(C#N)c1` belongs 697 nM.
Same read-out and setting: next, `O=S(=O)(Nc1cc2c(cc1O)CCNCC2)c1ccc(-c2ccc(Cl)cc2)cc1`: 980 nM.
Compound `COc1ccc2ccc(F)c(CCN3CCC(NCc4cc5c(cn4)OCCO5)CC3)c2n1` had an XC50 (Plasmodium falciparum, 3D7) of 840 nM.
In the case of `COc1ccc(C(=O)Nc2ccc3nc(N4CCCCC4)cc(C)c3c2)cc1[N+](=O)[O-]`, the XC50 (Plasmodium falciparum, 3D7) is 779 nM.
Same read-out and setting: to `CC(C)(C)c1ccc(NC(=O)c2cccc(CN3CCCN(Cc4cccc(Cl)c4)CC3)c2)cc1` belongs 997 nM.
Same read-out and setting: next, `CCN(CC)CCCN(C(=O)Nc1c(Cl)cncc1Cl)c1nc(-c2ccc(F)cc2)cs1`: 241 nM; `NC1CCN(Cc2ccc(-c3ccc(-c4nc5ccccc5[nH]4)s3)cc2)C1` (stereo not given): 743 nM.
On the same count and under the same terms, to `Clc1ccc(-c2cc(-c3csc(NCCN4CCOCC4)n3)on2)c(Cl)c1` belongs 660 nM.
As for `COc1cc(C(=O)N2CCC(CCN3CCC4(CC3)CN(S(C)(=O)=O)c3ccccc34)CC2Cc2ccc(Cl)c(Cl)c2)cc(OC)c1OC` (stereo not given), the XC50 (Plasmodium falciparum, 3D7) was found to be 843 nM.
On to `N=C(N)c1ccc2[nH]c(-c3cc4cc(C(=N)N)ccc4o3)cc2c1`, for which, where the note is “Plasmodium falciparum, 3D7”, the XC50 came to 179 nM.
On the same count and under the same terms, next, `CSc1cccc(Nc2nc3ccc(S(=O)(=O)NC(C)C(C)C)cc3n2[C@H](C)C(C)(C)C)c1` (stereo not given in full): 446 nM; `Cc1ccc(NC(=O)NC2CCN(CCC(NC(=O)Cc3ccccc3)c3ccc(Cl)c(Cl)c3)CC2)cc1` (stereo not given): 619 nM; `Cc1noc(C)c1-c1cccc(CNCc2cccc(-c3csc(-c4nc5ccccc5[nH]4)c3)c2)c1`: 263 nM.
The same measure, in the same setting: to `CCN(CCCN1CCCCC1)c1cc(C)nc(Nc2ccc3c(c2)CCC3)n1` belongs 394 nM; to `COc1cc(Nc2nc(N)n(C(=O)c3ccc4c(c3)OCO4)n2)cc(OC)c1OC`, 1130 nM.
On the same count and under the same terms, next, `CN1CCN(c2ccnc3ccc(NC(=O)Nc4cccc5c(C#N)cccc45)cc23)CC1`: 1050 nM; `CC(CN(C)C)C(=O)Nc1ccc(-c2ccc(-c3nc4ccccc4[nH]3)s2)cc1` (stereo not given): 717 nM; `Cc1cc(NCCC(=O)Nc2ccccc2)nc(NCCOc2ccccc2)n1`: 1140 nM.
`Cc1cc(N/N=C/c2cccc([N+](=O)[O-])c2)c2ccc(C(F)(F)F)cc2n1`: the XC50 (Plasmodium falciparum, 3D7) came out at 876 nM.
Same read-out and setting: to `NC1CCN(c2nc(NCCCc3ccc(O)cc3)nc(NCc3ccccc3-c3ccccc3)n2)CC1` belongs 678 nM; to `COc1ccc2nccc(NCC3(O)CCC(NCc4cc5c(cn4)OCCO5)CC3)c2n1` (stereo not given), 664 nM; to `CCn1cnc2c(N3CCCC3=O)cc(C(=O)N[C@@H](Cc3ccccc3)[C@H](O)CNC3CCCCC3)cc21`, 574 nM.
`Cc1ccc2nc(C)cc(Nc3ccccc3O)c2c1` gave an XC50 (Plasmodium falciparum, 3D7) of 791 nM.
On to `Cc1ccc(C2CCN(CCCCNC(=O)c3ccc(-c4ccc(C#N)cc4)cc3)CC2)c(O)c1`, for which the XC50 (Plasmodium falciparum, 3D7) worked out at 292 nM.
Under “Plasmodium falciparum, 3D7”, `CC(C)(C)OC(=O)[C@H](CC(N)=O)NC(=O)c1ccc(-c2ccc(-c3nc4cc(C(F)(F)F)ccc4[nH]3)s2)cc1` returned an XC50 of 271 nM.
On the same count and under the same terms, next, `CCCCCCN(CCCCCC)CC(O)c1c(OC)ccc2ccccc12` (stereo not given): 567 nM.
`CN(CCN(C)CC(O)c1ccc(Cl)c(Cl)c1)CC(O)c1ccc(Cl)c(Cl)c1` (stereo not given) gave an XC50 (Plasmodium falciparum, 3D7) of 1100 nM.
On the same count and under the same terms, to `O=C(Nc1ccc(F)cc1)c1cnc(N2CCN(c3ccncc3)CC2)c(Cl)c1` belongs 735 nM; to `Cc1cc(CN2CCC(N3CC(c4ccccc4)(c4ccccc4)OC3=O)C2)ccc1O` (stereo not given), 776 nM.
Take `Cc1nn(C2CCS(=O)(=O)C2)c(C)c1C1Nc2ccccc2C(=O)N1Cc1ccc2c(c1)OCO2` (stereo not given): the XC50 (Plasmodium falciparum, 3D7) is 511 nM.
Same read-out and setting: to `CC(C)c1ccc2c(c1)c(SC(C)(C)C)c(CC(C)(C)C#N)n2Cc1ccc(Cl)cc1` belongs 225 nM.
With `Cc1cc(N2CCCC2)nc(Nc2ccc(NC(=O)CC(C)C)cc2)n1`, the XC50 (Plasmodium falciparum, 3D7) is 841 nM.
Same read-out and setting: to `CS(=O)(=O)NCCCNCc1cccc(-c2ccc(-c3nc4ccccc4[nH]3)s2)c1` belongs 1080 nM.
On to `O=C(/C=C/c1ccc(Cl)c(Cl)c1)NCCCCCN1CCC(NC(=O)Nc2ccc(C(F)(F)F)cc2)CC1`, for which the XC50 (Plasmodium falciparum, 3D7) is 750 nM.
The same measure, in the same setting: to `CN1CCN(Cc2cccc(-c3ccc4c(Nc5ccc(Oc6ccccc6)cc5)ccnc4c3)c2)CC1` belongs 226 nM; to `CC(=O)c1c(Nc2c(C)cc(C)cc2C)oc(C)cc1=O`, 481 nM; to `CCN1CCC(N(CCCCCCCCc2ccc(C(F)(F)F)cc2)C(=O)Cn2c(CCc3cccc(F)c3F)cc(=O)c3ccccc32)CC1`, 1200 nM.
Still for that read-out and setting: to `O=C(Nc1ccc(OC2CCN(Cc3ccccc3)CC2)c(Cl)c1)c1cccs1` belongs 312 nM.
Still for that read-out and setting: to `O=C(N[C@@H](Cc1ccccc1)C(=O)NCCN1CCOCC1)c1ccc(O)c(-c2ccc(Cl)c(Cl)c2)c1` belongs 921 nM; to `CN1CCN(c2ccnc3ccc(NC(=O)Nc4ccccc4Br)cc23)CC1`, 372 nM; to `COc1ccc(NC(=O)N2CCc3ccc(OCCN(C(C)C)C(C)C)cc32)cc1C(F)(F)F`, 969 nM.
`CC(=O)c1c[nH]c(C(=O)Nc2ccc(-c3cn4ccccc4n3)cc2)c1` showed an XC50 (Plasmodium falciparum, 3D7) of 890 nM.
The same measure, in the same setting: to `CC1CCN(CC[C@H]2CCCN2S(=O)(=O)c2cccc(NC(=O)c3ccc(-c4ccc(Cl)cc4)o3)c2)CC1` belongs 693 nM.
Under “Plasmodium falciparum, 3D7”, `c1ccc(CCNCc2ccc(-c3ccc(CNC4CCN(Cc5ccccc5)CC4)cc3)nc2)cc1` registered an XC50 of 446 nM.
`O=C(N[C@@H](CC1CCCCC1)C(=O)NCc1cccc2ccccc12)c1ccc(O)c(-c2ccc(Cl)c(Cl)c2)c1` yielded an XC50 (Plasmodium falciparum, 3D7) of 216 nM.
Same read-out and setting: to `CS(=O)(=O)Cc1ccc(Nc2nccc(-c3c(-c4cccc(NC(=O)C5CCCCC5)c4)nn4ncccc34)n2)cc1` belongs 201 nM.
For the compound `c1ccc(-c2cc3cccc(-c4nc5cnccc5[nH]4)c3o2)cc1`, for the setting “Plasmodium falciparum, 3D7”, the XC50 came to 115 nM.
In turn, `OC1(CNCc2ccccc2)CCN(CCc2c[nH]c3ccc(F)cc23)CC1` showed an XC50 (Plasmodium falciparum, 3D7) of 710 nM.
As for `O=C1Nc2ccc3ncccc3c2/C1=C/Nc1ccc(N2CCN(CCO)CC2)cc1`, where the note is “Plasmodium falciparum, 3D7”, the XC50 stood at 1270 nM.
On to `O=C(Nc1cc(C(F)(F)F)cc(C(F)(F)F)c1)Nc1cc(C(F)(F)F)cc(C(F)(F)F)c1`, for which the XC50 (Plasmodium falciparum, 3D7) is 727 nM.
Turning to `COc1ccc2nccc([C@@H](O)CN3CCC(NCc4cc5cccc(OCc6ccccc6)c5[nH]4)CC3)c2c1`, the XC50 (Plasmodium falciparum, 3D7) amounted to 899 nM.
On the same count and under the same terms, next, `CCOC(=O)[C@H](Cc1cc([N+](=O)[O-])c(Oc2ccc(OC)c(Cc3ccc(OC)c(C(C)C)c3)c2)c([N+](=O)[O-])c1)NC(=O)C(F)(F)F`: 984 nM; `CCC(Nc1noc(-c2c(-c3ccccc3)noc2C)n1)c1ccccc1` (stereo not given): 973 nM; `c1cc(CN2CCCCC2)cc(-c2ccc(-c3nc4ccccc4[nH]3)cc2)c1`: 889 nM.
Under “Plasmodium falciparum, 3D7”, `O=C(CCN1CCCCC1)Nc1ccc(Nc2nccc(NCC(O)c3ccccc3)n2)cc1` (stereo not given) yielded an XC50 of 721 nM.
On the same count and under the same terms, next, `O=C(NCCCCN1CCC(c2ccc3c(c2OCCN2CCCC2=O)CCCC3)CC1)c1ccc(-c2ccc(C(F)(F)F)cc2)cc1`: 1520 nM; `Cc1cc(N[C@@H](Cc2ccccc2)C(=O)NCCOc2ccccc2)nc(NCCOc2ccccc2)n1`: 1360 nM.
For the compound `COc1ccc(CNCc2ccccc2)cc1-c1ccc(S(=O)(=O)NCCN2CCCC2)s1`, the XC50 (Plasmodium falciparum, 3D7) stood at 674 nM.
Consider `O=C(NCc1ccccc1)NC1CCN(c2ccnc3cc(Cl)ccc23)C1` (stereo not given), for which the XC50 (Plasmodium falciparum, 3D7) was 158 nM.
The same measure, in the same setting: to `CC1CC(NCCCNc2cc(=O)c3ccccc3[nH]2)c2c1cc(Cl)c(Cl)c2Cl` (stereo not given) belongs 837 nM; to `Cc1cnc2cc3c(cc2c1N1CCN(C)CC1)NCC3`, 779 nM.
Same read-out and setting: to `O=C(Nc1cc(C(F)(F)F)cc(C(F)(F)F)c1)c1cccc([N+](=O)[O-])c1` belongs 895 nM.
As for `CC(=O)Nc1ccc(CNC2Cc3ccc(-c4ccc(Cl)c(Cl)c4)cc3C2)cc1` (stereo not given), the XC50 (Plasmodium falciparum, 3D7) was 998 nM.
On to `CCOc1ccc(-c2nc(NC(=O)Cc3cccc(OC)c3)sc2C)cc1`, for which the XC50 (Plasmodium falciparum, 3D7) stood at 730 nM.
For the compound `O=C(/C=C/c1ccc([N+](=O)[O-])cc1)NC1CCC(CN2CCC(c3c[nH]c4ccccc34)CC2)CC1` (stereo not given), the XC50 amounted to 835 nM. Further, for the setting “Plasmodium falciparum, 3D7”, the XC50 was found to be 794 nM.
For the setting “Plasmodium falciparum, 3D7”, `CCc1nc2nc(C)cc(Nc3cc(C)cc(C)c3)n2n1` showed an XC50 of 294 nM.
For the compound `O=C(NC1CCCCN(Cc2ccccc2O)C1)c1cccc(C(F)(F)F)c1` (stereo not given), the XC50 (Plasmodium falciparum, 3D7) was found to be 795 nM.
